Reference: US20090176759A1, “LEUKEMIC STEM CELL ABLATION” (ChemGenex Pharmaceuticals, Inc., priority 2007, published 2009)

Assays:
[1] = test system: leukemia stem cells (GFP+Lin− c-Kit+Sca-1+); experiment: Bone marrow cells from CML mice cultured in vitro with HHT, FACS analysis of leukemia stem cells; format: cell-based
Description: FIG. 5A is a FACS analysis of bone marrow cells isolated from mice with BCR-ABL-WT-induced CML were cultured in vitro (5×10^6 cells/6 cm tissue culture plate) in the presence of different doses of HHT for 6 days (changing the stem cell medium containing placebo or HHT at day 3) followed by FACS analysis of leukemia stem cells (GFP+Lin− c-Kit+Sca-1+). FIG. 5B depicts bar graphs for the leukemic cells and leukemic stem cells. […] Bone marrow cells were isolated from the treated CML mice, and leukemia stem cells were analyzed by FACS. The numbers of cells represent total leukemia stem cells in average from femur and tibia of each treated CML mouse.
FIG. 5A is a FACS analysis of bone marrow cells isolated from mice with BCR-ABL-WT-induced CML that were cultured in vitro (5×10^6 cells/6 cm tissue culture plate) in the presence of different doses of HHT for 6 days (changing the stem cell medium containing placebo or HHT at day 3) followed by FACS analysis of leukemia stem cells (GFP+ Lin− c-Kit+Sca-1+). FIG. 5B depicts bar graphs for the leukemic cells and leukemic stem cells.

[2] = Phase 2/3 study of subcutaneous omacetaxine, safety and tolerability; format: in vivo, human
Description: A multicenter open-label phase 2/3 study evaluating safety and efficacy of omacetaxine administered subcutaneously (SC) in patients with IM-resistant T315I+CML in all phases of the disease is being conducted.
Induction phase—1.25 mg/m2 twice daily SC for 14 consecutive days every 28 days until complete hematologic response (CHR) or hematologic improvement has been achieved.
Maintenance therapy—1.25 mg/m2 twice daily SC for 7 days every 28 days for up to 24 months.
Doses were adjusted to maintain adequate WBC and platelet control by increasing or decreasing the number of days of administration of omacetaxine.
Includes all events considered related, probably related, possibly related, or with unknown relationship to omacetaxine treatment. Events listed in the table are included if occurrence was >5% of the total population (at least 1 of 23 patients).

[3] = in vitro, different doses of HHT for 6 days

COC(=O)C[C@](O)(CCCC(C)(C)O)C(=O)O[C@@H]1C(OC)=C[C@]23CCCN2CCc2cc4c(cc2[C@H]13)OCO4 [HHT, Homoharringtonine]
proliferation of BCR-ABL-expressing leukemic stem cells [1]: inhibits the proliferation | number of leukemic cells [1, 3]: reduces | number of leukemic stem cells [1, 3]: reduces | Treatment-Related Serious Adverse Events: Neutropenic Fever ([2]; Accelerated Phase): 1 (9) Number (percent) | Treatment-Related Serious Adverse Events: Thrombocytopenia ([2]; Accelerated Phase): 0 Number (percent) | Grade 3/4 Toxicities: Anemia ([2]; Accelerated Phase, N = 5): 2 (40) number (percent) | Grade 3/4 Toxicities: Diarrhea ([2]; Accelerated Phase, N = 5): 1 (20) number (percent) | Grade 3/4 Toxicities: Febrile neutropenia ([2]; Accelerated Phase, N = 5): 2 (40) number (percent) | Grade 3/4 Toxicities: Neutropenia ([2]; Accelerated Phase, N = 5): 2 (40) number (percent) | Grade 3/4 Toxicities: Pancytopenia ([2]; Accelerated Phase, N = 5): 2 (40) number (percent) | Grade 3/4 Toxicities: Thrombocytopenia ([2]; Accelerated Phase, N = 5): 3 (60) number (percent) | Treatment-Related Serious Adverse Events: Acute Coronary Syndrome* ([2]; Accelerated Phase, N = 6): 0 Number (percent) | Deaths on study ([2]; BP patients with progressive disease, none considered related to the study drug): 3 deaths | Grade 3/4 Toxicities: Anemia ([2]; Blast Phase, N = 6): 1 (17) number (percent) | Grade 3/4 Toxicities: Diarrhea ([2]; Blast Phase, N = 6): 1 (17) number (percent) | Grade 3/4 Toxicities: Febrile neutropenia ([2]; Blast Phase, N = 6): 2 (40) number (percent) | Grade 3/4 Toxicities: Neutropenia ([2]; Blast Phase, N = 6): 2 (33) number (percent) | Grade 3/4 Toxicities: Pancytopenia ([2]; Blast Phase, N = 6): 0 number (percent) | Grade 3/4 Toxicities: Thrombocytopenia ([2]; Blast Phase, N = 6): 1 (17) number (percent) | Treatment-Related Serious Adverse Events: Acute Coronary Syndrome* ([2]; Blast Phase, N = 6): 0 Number (percent) | Treatment-Related Serious Adverse Events: Neutropenic Fever ([2]; Blast Phase, N = 6): 1 (9) Number (percent) | Treatment-Related Serious Adverse Events: Thrombocytopenia ([2]; Blast Phase, N = 6): 0 Number (percent) | Grade 3/4 Toxicities: Anemia ([2]; Chronic Phase, N = 12): 7 (58) number (percent) | Grade 3/4 Toxicities: Diarrhea ([2]; Chronic Phase, N = 12): 2 (17) number (percent) | Grade 3/4 Toxicities: Febrile neutropenia ([2]; Chronic Phase, N = 12): 1 (9) number (percent) | Grade 3/4 Toxicities: Neutropenia ([2]; Chronic Phase, N = 12): 6 (50) number (percent) | Grade 3/4 Toxicities: Pancytopenia ([2]; Chronic Phase, N = 12): 1 (9) number (percent) | Grade 3/4 Toxicities: Thrombocytopenia ([2]; Chronic Phase, N = 12): 8 (67) number (percent) | Treatment-Related Serious Adverse Events: Neutropenic Fever ([2]; Chronic Phase, N = 12): 1 (9) Number (percent) | Treatment-Related Serious Adverse Events: Thrombocytopenia ([2]; Chronic Phase, N = 12): 1 (9) Number (percent) | Treatment-Related Serious Adverse Events: Acute Coronary Syndrome* ([2]; Chronic Phase, N = 12, considered secondary to omacetaxine induced anemia): 1 (9) Number (percent) | Grade 3/4 Toxicities: Anemia ([2]; Total, N = 23): 10 (43) number (percent) | Grade 3/4 Toxicities: Diarrhea ([2]; Total, N = 23): 4 (17) number (percent) | Grade 3/4 Toxicities: Febrile neutropenia ([2]; Total, N = 23): 5 (22) number (percent) | Grade 3/4 Toxicities: Neutropenia ([2]; Total, N = 23): 10 (43) number (percent) | Grade 3/4 Toxicities: Pancytopenia ([2]; Total, N = 23): 3 (13) number (percent) | Grade 3/4 Toxicities: Thrombocytopenia ([2]; Total, N = 23): 12 (52) number (percent) | Treatment-Related Serious Adverse Events: Acute Coronary Syndrome* ([2]; Total, N = 23): 1 (4) Number (percent) | Treatment-Related Serious Adverse Events: Neutropenic Fever ([2]; Total, N = 23): 3 (13) Number (percent) | Treatment-Related Serious Adverse Events: Thrombocytopenia ([2]; Total, N = 23): 1 (4) Number (percent) | Grade 1/2 injection site erythema, patients ([2]; number (%) of patients): 6 (23%) | Grade 1/2 injection site pain, patients ([2]; number (%) of patients): 3 (13%) | Dose delays ([2]; of induction cycles): 75% | Dose delays ([2]; of maintenance cycles): 80% | myelosuppression (most common side effect) ([2]; subcutaneously administered): usually transient and reversible, and rarely results in serious clinical complications | tolerability ([2]; subcutaneously administered): generally well tolerated
